One experiment has as its system Arabidopsis. The experiment is described as follows: Inhibition of arabidopsis recombinant allene oxide synthase at 1 uM.
The nature of experiment [1]: Inhibition of arabidopsis recombinant allene oxide synthase. Conditions: read-out: I50.
A short description of experiment [2]: Binding affinity at arabidopsis recombinant allene oxide synthase.

As usually defined, the inhibition is the relative decrease from the control value, in per cent. A word on the Kd: it is the concentration at which binding is half-saturated. On to `CCCCCCCOC(=O)CCCCCCCO[C@@H](Cn1ccnc1)c1ccc(Cl)cc1Cl`, for which the inhibition with Arabidopsis was 93%. For the same compound, in experiment [1], the IC50 turned out to be 5 nM. Moreover, the Kd in experiment [2] stood at 1400 nM.

As for `CCCCCCCOC(=O)CCCCCCCO[C@H](Cn1ccnc1)c1ccc(Cl)cc1Cl`, the inhibition in the experiment on Arabidopsis was 50%. Besides, the IC50 in experiment [1] came to 950 nM. The Kd in experiment [2] stood at 4800 nM.

The values are drawn from ChEMBL document CHEMBL1142282, “Asymmetric synthesis and stereochemical structure-activity relationship of (R)- and (S)-8-[1-(2,4-dichlorophenyl)-2-imidazol-1-yl-ethoxy] octanoic acid heptyl ester, a potent inhibitor of allene oxide synthase” (Bioorg Med Chem, 2008).
